# Source: patent US20240391930A1, “SPIROCYCLIC BICYCLIC MODULATORS OF CHOLESTEROL BIOSYNTHESIS AND THEIR USE FOR PROMOTING REMYELINATION” (GENENTECH, INC., priority 2021, published 2024)
# Experiments:
# [1] = molecular target: T1, human emopamil binding protein and human 7-dehydrocholesterol reductase (hEBP-DHCR7) (Homo sapiens, UniProt Q15125); assay: hEBP-DHCR7 radioligand filtration binding assay; conditions: membranes of HEK293 co-expressing hEBP and DHCR7; [3H] 2-thia-6-azaspiro[3.4]octane radioligand; 8 doses 0.06 to 5000 nM
# T1 construct: expressed in transfected cells; host or cells: HEK 293 cells, transient transfection with 2 DNA constructs
# How it was run: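 Membranes from HEK293 cells transiently co-expressing human EBP and DHCR7 (10 μg/well) incubated 3 h at 22 °C with tritiated 2-thia-6-azaspiro[3.4]octane dioxide radioligand (25 nM stock addition) and compound at 0.06–5000 nM final. Bound ligand collected on PEI-treated GF/B filters, scintillation-counted. IC50 by Hill fit; reported as Ki.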
# [2] = tested on: zymostenol accumulation in EpiSC-derived OPCs (EBP); assay: GC/MS-based sterol profiling (zymostenol accumulation); type: cell-based; conditions: Mus musculus, 24 hours, 8 doses from 0.15 nM to 333 nM, read-out: Zymostenol GCMS EC50
# How it was run: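 Zymostenol level is expressed relative to that after 24 h with 100 nM positive-control reference, measured by full-scan GC/MS (m/z 458) with cholesterol-d7 internal standard after BSTFA derivatisation. Cells were EpiSC-derived OPCs, 100,000/well in N2B27 without growth factors, treated 24 h, from two or more independent platings.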
# EpiSC-derived OPCs = assay: In vitro phenotypic screening of OPCs (MBP high-content imaging); type: cell-based; conditions: Mus musculus, 72 h; percentage of MBP-positive oligodendrocytes, 3 days, 0.5 nM to 1000 nM; read-out: OPC EC50
# Description: To assess effects of treatments on OPCs, all treatments were assayed in two or more independent platings of epiblast stem cell-derived OPCs (EpiSC). EpiSC-derived OPCs were obtained using in vitro differentiation protocols and culture conditions described previously (Najm et al, 2011, Nature Methods). OPCs were expanded and frozen down in aliquots. OPCs were thawed into growth conditions for at least one passage before use in further assays.
# EpiSC-derived OPCs were grown and expanded in poly-L-ornithine (PO) and laminin-coated flasks in N2B27 media (DMEM/F12 (Gibco), N2-MAX (R&D Systems), B-27 (ThermoFisher), and GlutaMax (Gibco)) supplemented with FGF2 ([…], R&D systems, 233-FB-025) and PDGF-AA ([…], R&D systems, 233-AA-050) before harvesting for experiments. The cells were seeded onto poly-L-ornithine or poly-D-lysine coated CellCarrier Ultra plates (PerkinElmer) coated with laminin (Sigma, L2020) at a density of 150,000/cm^2 in N2B27 media without growth factors. For dose-response testing, a 1000× compound stock in dimethyl sulphoxide (DMSO) was added to assay plates, resulting in 8-point dose curves with final concentrations between 1000 nM and 0.5 nM. Positive controls and DMSO vehicle controls were included in each assay plate. Cells were incubated under standard conditions (37° C., 5% CO2) for 3 days and fixed with 4% paraformaldehyde (PFA) in phosphate buffered saline (PBS) for 20 min. Fixed plates were washed with PBS, permeabilized with 0.1% Triton X-100, and blocked with 10% donkey serum (v/v) in PBS for 40 min. Then, cells were labelled with MBP antibodies (Abcam, ab7349; 1:200) for 2 h at room temperature, washed with PBS, and stained with Alexa Fluor conjugated secondary antibodies (1:500) for 45 min. Nuclei were visualized by DAPI staining (Sigma; 1 μg/ml), followed by further PBS washes.
# Cells and cell culture plates were imaged on the Operetta High Content Imaging and Analysis system (PerkinElmer). Analysis (PerkinElmer Harmony and Columbus software) began by identifying intact nuclei stained by DAPI. The peri-nuclear region of each cell was then cross-referenced with the […] (MBP) stain to identify oligodendrocyte nuclei, and from this the percentage of oligodendrocytes was calculated.
# T1 sequence (Q15125 whole entry): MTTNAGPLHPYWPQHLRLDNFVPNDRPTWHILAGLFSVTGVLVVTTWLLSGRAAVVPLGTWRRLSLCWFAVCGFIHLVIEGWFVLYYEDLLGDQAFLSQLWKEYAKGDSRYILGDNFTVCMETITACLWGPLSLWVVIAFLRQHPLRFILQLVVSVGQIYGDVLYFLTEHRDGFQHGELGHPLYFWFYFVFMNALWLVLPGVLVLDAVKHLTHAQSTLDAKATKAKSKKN
Structure (SMILES),Ki [1] [nM],EC50 [2] [nM],EC50 (EpiSC-derived OPCs) [nM]
"O=S1(=O)CC2(CCN([C@@H]3C[C@@H]4[C@H](C3)[C@H]4c3cc(C(F)(F)F)nn3CC(F)F)CC2)C1 (single isomer, unassigned) [Compound 62*]",134,12,60
"CC(C)n1nc(-c2cncc(OC(F)F)c2)cc1[C@H]1[C@@H]2C[C@H](N3CCC4(CC3)CS(=O)(=O)C4)C[C@@H]21 (single isomer, unassigned) [Compound 46*]",34.6,24,44
"CC(C)n1nc(-c2cnc(C(F)(F)F)nc2)cc1[C@H]1[C@@H]2C[C@@H](N3CCC4(C3)CS(=O)(=O)C4)C[C@@H]21 (single isomer, unassigned) [Compound 102]",42.5,14,64.6
"CCn1nc(-c2cncc(C(F)(F)F)c2)cc1[C@H]1[C@@H]2C[C@H](N3CCC4(CC3)CS(=O)(=O)C4)C[C@@H]21 (single isomer, unassigned) [Compound 54*]",32.8,9.1,31
"CC(C)n1nc(-c2ccc(C(F)(F)F)nc2)cc1[C@H]1[C@@H]2C[C@@H](N3CCC4(C3)CS(=O)(=O)C4)C[C@@H]21 (single isomer, unassigned) [Compound 13]",37.1,6.5,17
"CC(C)n1nc(-c2cccc(C(F)(F)F)c2)cc1[C@H]1[C@@H]2C[C@H](N3CCC4(C3)CS(=O)(=O)C4)C[C@@H]21 (single isomer, unassigned) [Compound 1]",13.1,1.2,1.3
"C[C@H](C(F)F)n1nc(C(F)(F)F)cc1[C@H]1[C@@H]2C[C@@H](N3CCC4(CC3)CS(=O)(=O)C4)C[C@@H]21 (racemic) [Compound 70*, 7-((1R,3S,5S,6r)-6-(1-((R)-1,1-difluoropropan-2-yl)-3-(trifluoromethyl)-1H-pyrazol-5-yl)bicyclo[3.1.0]hexan-3-yl)-2-thia-7-azaspiro[3.5]nonane 2,2-dioxide and 7-((1R,3R,5S,6r)-6-(1-((S)-1,1-difluoropropan-2-yl)-3-(trifluoromethyl)-1H-pyrazol-5-yl)bicyclo[3.1.0]hexan-3-yl)-2-thia-7-azaspiro[3.5]nonane 2,2-dioxide]",55.3,9.4,24
